Biological target: T1, BST pol (Bacillus stearothermophilus DNA polymerase) (Geobacillus stearothermophilus, UniProt P52026)
T1 construct: gene polA
T1 sequence (P52026 297-876 limits assumed): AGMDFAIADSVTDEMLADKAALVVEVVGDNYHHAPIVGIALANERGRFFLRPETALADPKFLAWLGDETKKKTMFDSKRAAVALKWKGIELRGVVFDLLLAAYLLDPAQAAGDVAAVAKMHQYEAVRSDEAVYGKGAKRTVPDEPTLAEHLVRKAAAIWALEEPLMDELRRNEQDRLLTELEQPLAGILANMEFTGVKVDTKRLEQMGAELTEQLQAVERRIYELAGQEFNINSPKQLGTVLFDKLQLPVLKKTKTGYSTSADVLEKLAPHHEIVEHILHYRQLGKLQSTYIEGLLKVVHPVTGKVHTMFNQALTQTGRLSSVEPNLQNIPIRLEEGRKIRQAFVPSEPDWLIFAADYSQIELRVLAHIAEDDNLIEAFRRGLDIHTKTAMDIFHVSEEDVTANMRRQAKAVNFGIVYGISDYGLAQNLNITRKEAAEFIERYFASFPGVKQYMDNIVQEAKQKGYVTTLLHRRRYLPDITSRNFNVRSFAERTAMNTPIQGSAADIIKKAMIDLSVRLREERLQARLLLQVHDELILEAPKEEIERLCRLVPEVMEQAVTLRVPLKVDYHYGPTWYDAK
Assay: equilibrium 2-aminopurine fluorescence quenching titration
Format: binding
Conditions: read-out: Kd,g

Nc1ccn([C@H]2C[C@H](O)[C@@H](COP(=O)(O)OP(=O)(O)OP(=O)(O)O)O2)c(=O)n1 [dCTP]
Kd: 1.46 ± 0.13 mM

— article PMC5992921, “The effect of different divalent cations on the kinetics and fidelity of Bacillus stearothermophilus DNA polymerase” (AIMS biophysics, 2018)
